Measurements as given in patent US20200369626A1 (Washington University, priority 2019, published 2020).

Columns and labels:
[1] = target: T1, S1PR2 (Homo sapiens, UniProt O95136); test: competitive [^32P]S1P binding assay on cell membranes, S1PR2; settings: Table 5; read-out: IC50 S1PR2
T1 construct: purchased
Experimental: The test compounds were dissolved in DMSO and diluted into test samples with increasing concentrations with assay buffer. Commercial cell membranes expressing recombinant human S1PR were diluted with assay buffer to make a 20-40 μg/mL of solution. […] The plate was incubated for 60 min at room temperature with shaking and terminated by collecting the membranes onto 96-well glass fiber (GF/B) filtration plates (Millipore, Billerica, Mass.). Each filter was washed with 200 μL of assay buffer for a total of five washes. […] The IC50 values were fitted from GraphPad Prism 6 using one site Nonlinear Regression.

[2] = target: T2, S1PR1 (Homo sapiens, UniProt P21453); test: competitive [^32P]S1P binding assay on cell membranes, S1PR1; settings: Table 5
T2 construct: purchased
Experimental: (§1) The test compounds were dissolved in DMSO and diluted into test samples with increasing concentrations with assay buffer. Commercial cell membranes expressing recombinant human S1PR were diluted with assay buffer to make a 20-40 μg/mL of solution. […] The plate was incubated for 60 min at room temperature with shaking and terminated by collecting the membranes onto 96-well glass fiber (GF/B) filtration plates (Millipore, Billerica, Mass.). Each filter was washed with 200 μL of assay buffer for a total of five washes. The filter bound radionuclide was measured by a Beckman LS 3801 scintillation counter using Cherenkov counting. The IC50 values were fitted from GraphPad Prism 6 using one site Nonlinear Regression.

[3] = target: T3, S1PR3 (Homo sapiens, UniProt Q99500); test: competitive [^32P]S1P binding assay on cell membranes, S1PR3; settings: Table 5
T3 construct: purchased
T3 sequence (Q99500 whole entry): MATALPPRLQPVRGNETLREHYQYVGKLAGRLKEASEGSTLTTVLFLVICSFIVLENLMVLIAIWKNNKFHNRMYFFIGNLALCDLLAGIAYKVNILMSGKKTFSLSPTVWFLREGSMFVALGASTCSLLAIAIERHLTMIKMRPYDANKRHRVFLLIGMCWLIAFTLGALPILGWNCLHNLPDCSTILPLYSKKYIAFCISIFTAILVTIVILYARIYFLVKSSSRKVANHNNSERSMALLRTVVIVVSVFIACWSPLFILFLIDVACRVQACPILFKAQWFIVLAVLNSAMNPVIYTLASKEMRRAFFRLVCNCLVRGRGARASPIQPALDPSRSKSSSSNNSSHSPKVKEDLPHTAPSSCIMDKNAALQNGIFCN
Experimental: as §1

[4] = target: T4, S1PR4 (Homo sapiens, UniProt O95977); test: competitive [^32P]S1P binding assay on cell membranes, S1PR4; settings: Table 5
T4 construct: purchased
T4 sequence (O95977 1-384): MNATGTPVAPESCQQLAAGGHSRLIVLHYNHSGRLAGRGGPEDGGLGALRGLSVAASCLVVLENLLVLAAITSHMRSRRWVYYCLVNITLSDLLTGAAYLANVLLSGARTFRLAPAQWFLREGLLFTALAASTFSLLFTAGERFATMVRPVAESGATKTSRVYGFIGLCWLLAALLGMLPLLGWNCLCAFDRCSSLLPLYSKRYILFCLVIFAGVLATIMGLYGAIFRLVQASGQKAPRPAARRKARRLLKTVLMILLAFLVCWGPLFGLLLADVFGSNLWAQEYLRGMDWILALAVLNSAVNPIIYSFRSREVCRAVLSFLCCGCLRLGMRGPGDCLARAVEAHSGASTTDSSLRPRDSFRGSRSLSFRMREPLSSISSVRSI
Experimental: as §1

[5] = target: T5, S1PR5 (Homo sapiens, UniProt Q9H228); test: competitive [^32P]S1P binding assay on cell membranes, S1PR5; settings: Table 5
T5 construct: purchased
T5 sequence (Q9H228 whole entry): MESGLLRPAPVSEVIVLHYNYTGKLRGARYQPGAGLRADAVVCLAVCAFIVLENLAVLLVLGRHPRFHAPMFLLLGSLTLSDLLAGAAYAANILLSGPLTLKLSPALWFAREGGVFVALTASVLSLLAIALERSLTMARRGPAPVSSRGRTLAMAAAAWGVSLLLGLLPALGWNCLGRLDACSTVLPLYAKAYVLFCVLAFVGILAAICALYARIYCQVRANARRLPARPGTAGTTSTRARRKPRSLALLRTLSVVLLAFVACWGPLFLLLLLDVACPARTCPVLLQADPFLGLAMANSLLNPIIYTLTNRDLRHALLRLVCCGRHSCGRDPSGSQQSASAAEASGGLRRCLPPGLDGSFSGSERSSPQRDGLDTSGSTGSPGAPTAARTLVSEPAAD

T1 sequence (O95136 whole entry): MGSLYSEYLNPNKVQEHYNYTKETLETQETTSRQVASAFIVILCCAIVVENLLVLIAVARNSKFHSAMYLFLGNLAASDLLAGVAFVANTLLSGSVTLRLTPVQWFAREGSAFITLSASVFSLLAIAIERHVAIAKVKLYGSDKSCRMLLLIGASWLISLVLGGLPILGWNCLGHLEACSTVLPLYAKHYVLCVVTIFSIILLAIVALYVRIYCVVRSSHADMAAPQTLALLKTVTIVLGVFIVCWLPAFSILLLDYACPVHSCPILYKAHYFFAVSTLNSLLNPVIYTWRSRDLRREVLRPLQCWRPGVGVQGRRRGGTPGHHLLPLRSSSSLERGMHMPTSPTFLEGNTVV
T2 sequence (P21453 whole entry): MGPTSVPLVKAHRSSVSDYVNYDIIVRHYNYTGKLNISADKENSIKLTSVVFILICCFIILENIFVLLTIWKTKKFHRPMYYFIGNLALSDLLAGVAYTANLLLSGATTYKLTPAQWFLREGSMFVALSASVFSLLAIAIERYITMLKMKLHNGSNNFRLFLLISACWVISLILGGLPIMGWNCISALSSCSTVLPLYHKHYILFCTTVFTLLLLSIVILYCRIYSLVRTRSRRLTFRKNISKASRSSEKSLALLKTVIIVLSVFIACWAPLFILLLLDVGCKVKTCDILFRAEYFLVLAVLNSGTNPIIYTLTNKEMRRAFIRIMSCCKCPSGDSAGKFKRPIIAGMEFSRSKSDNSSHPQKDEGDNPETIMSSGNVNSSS

| Structure (SMILES) | IC50 [1] [nM] | other results |
| --- | --- | --- |
| COc1ccc(NC(=O)Cn2c(=O)c3ccccc3n(CC(=O)Nc3cc(Cl)c(OC)cc3OC)c2=O)cc1 [TZ59-104, N-(5-Chloro-2,4-dimethoxyphenyl)-2-(3-(2-((4-methoxyphenyl)amino)-2-oxoethyl)-2,4-dioxo-3,4-dihydroquinazolin-1(2H)-yl)acetamide] | 5.7 ± 0.5 | IC50 [2]: > 1000 nM; IC50 [3]: > 1000 nM |
| COc1cc(OC)c(NC(=O)Cn2c(=O)n(CC(=O)Nc3ccccc3OC)c(=O)c3ccccc32)cc1Cl [TZ59-134, N-(5-Chloro-2,4-dimethoxyphenyl)-2-(3-(2-((2-methoxyphenyl)amino)-2-oxoethyl)-2,4-dioxo-3,4-dihydroquinazolin-1(2H)-yl)acetamide] | 6.3 ± 0.9 | IC50 [2]: > 1000 nM; IC50 [3]: > 1000 nM; IC50 [4]: > 1000 nM; IC50 [5]: > 1000 nM |
| COc1cc(OC)c(NC(=O)Cn2c(=O)n(CCF)c(=O)c3ccccc32)cc1Cl [TZ62-083] | > 1000 |  |
| COc1cc(OC)c(NC(=O)Cn2c(=O)n(C)c(=O)c3ccccc32)cc1Cl [TZ62-084] | > 1000 |  |
| CCn1c(=O)c2ccccc2n(CC(=O)Nc2cc(Cl)c(OC)cc2OC)c1=O [TZ62-087] | > 1000 |  |
| COc1cc(OC)c(NC(=O)Cn2c(=O)n(CCCC(=O)NC3CCCC3)c(=O)c3ccccc32)cc1Cl [TZ62-090] | 76 ± 19 |  |
| COc1cc(OC)c(NC(=O)Cn2c(=O)n(CCCC(=O)NC3CCCC3)c(=O)c3cc(Cl)ccc32)cc1Cl [TZ62-091] | > 1000 |  |
| O=C(O)Cn1c(=O)c2ccccc2n(CC(=O)Nc2cc(Cl)nc(Cl)c2)c1=O [TZ62-092] | > 1000 |  |
| COc1ccccc1NC(=O)Cn1c(=O)c2ccccc2n(CC(=O)Nc2cc(Cl)nc(Cl)c2)c1=O [TZ62-093] | > 1000 |  |
| CCOc1ccc(C(=O)Cn2c(=O)n(Cc3ccccc3)c(=O)c3ccccc32)cc1Cl [TZ62-097] | > 1000 |  |
| CCOc1ccc(C(=O)Cn2c(=O)n(C)c(=O)c3ccccc32)cc1Cl [TZ62-098] | > 1000 |  |
| CCOc1ccc(C(=O)Cn2c(=O)n(CC)c(=O)c3ccccc32)cc1Cl [TZ62-099] | > 1000 |  |
| CCOc1ccc(C(=O)Cn2c(=O)n(CCF)c(=O)c3ccccc32)cc1Cl [TZ62-100] | > 1000 |  |
| COc1cc(OC)c(NC(=O)Cn2c(=O)n(CCN3CCOCC3)c(=O)c3ccccc32)cc1Cl [TZ62-102] | > 1000 |  |
| CCOc1ccc(C(=O)Cn2c(=O)n(CC(=O)Nc3ccccc3OC)c(=O)c3ccccc32)cc1Cl [TZ62-114] | 49.8 ± 4.9 |  |
| CCOc1ccc(C(=O)Cn2cc(C(=O)O)c(=O)c3ccccc32)cc1Cl [TZ62-120] | 270 ± 210 |  |
| COc1ccc(NC(=O)c2cn(CC(=O)Nc3cc(Cl)c(OC)cc3OC)c3ccccc3c2=O)cc1 [TZ62-125] | > 1000 |  |
| COc1ccc2c(c1)c(=O)c1ccccc1n2CC(=O)Nc1cc(Cl)c(OC)cc1OC [TZ65-032] | > 1000 |  |
| COc1cc(OC)c(NC(=O)Cn2c(=O)n(CC(=O)Nc3ccc(I)cc3)c(=O)c3ccccc32)cc1Cl [TZ65-033] | 16.9 ± 5.6 |  |
| COc1cc(OC)c(NC(=O)Cn2c(=O)n(CC(=O)Nc3ccc(OCCF)cc3)c(=O)c3ccccc32)cc1Cl [TZ65-049] | 10 ± 2.4 |  |
